Test results from patent US6800637B2, “Antidepressant indolealkyl derivatives of heterocycle-fused benzodioxan methylamines” (Wyeth, priority 2002, dated 2004).
Structures can show the parent of a compound that is named as a salt.

How the values were obtained:
human 5-HT1A receptors = biological target: T1, human 5-HT1A receptors (Homo sapiens, UniProt P08908); test: Displacement of [3H] 8-OHDPAT from 5-HT1A receptor, CHO cells stably transfected with human 5-HT1A receptors; type: binding; conditions: CHO cells with human 5-HT1A receptors, read-out: 5-HT1A Receptor Affinity KI
T1 construct: expressed in transfected cells; host or cells: CHO cells
T1 sequence (P08908 1-422): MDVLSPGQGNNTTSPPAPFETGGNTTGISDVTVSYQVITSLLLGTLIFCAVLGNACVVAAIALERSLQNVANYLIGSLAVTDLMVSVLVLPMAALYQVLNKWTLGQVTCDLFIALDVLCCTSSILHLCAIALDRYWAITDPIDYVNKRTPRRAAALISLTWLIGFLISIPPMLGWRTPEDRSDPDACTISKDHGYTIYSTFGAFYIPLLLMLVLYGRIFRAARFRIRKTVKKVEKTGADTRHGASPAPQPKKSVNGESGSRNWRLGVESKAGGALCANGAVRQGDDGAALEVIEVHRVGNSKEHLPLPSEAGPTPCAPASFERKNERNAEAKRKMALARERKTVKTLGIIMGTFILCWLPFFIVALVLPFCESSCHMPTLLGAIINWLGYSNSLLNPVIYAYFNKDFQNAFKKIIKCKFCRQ
Source text: High affinity for the serotonin 5-HT1A receptor was established by testing the claimed compound's ability to displace [^3H] 8-OHDPAT (dipropylaminotetralin) from the 5-HT1A serotonin receptor following a modification of the procedure of Hall et al., J. Neurochem. 44, 1685 (1985) which utilizes CHO cells stably transfected with human 5-HT1A receptors.

serotonin transporter = biological target: T2, serotonin transporter (Rattus norvegicus, UniProt P31652); test: Displacement of 3H-paroxetine from male rat frontal cortical membranes (serotonin transporter affinity); type: binding; conditions: read-out: 5-HT Transporter Affinity KI
T2 construct: displace ^3H-paroxetine from male rat frontal cortical membranes; from tissue; host or cells: male rat frontal cortex membranes
T2 sequence (P31652 whole entry): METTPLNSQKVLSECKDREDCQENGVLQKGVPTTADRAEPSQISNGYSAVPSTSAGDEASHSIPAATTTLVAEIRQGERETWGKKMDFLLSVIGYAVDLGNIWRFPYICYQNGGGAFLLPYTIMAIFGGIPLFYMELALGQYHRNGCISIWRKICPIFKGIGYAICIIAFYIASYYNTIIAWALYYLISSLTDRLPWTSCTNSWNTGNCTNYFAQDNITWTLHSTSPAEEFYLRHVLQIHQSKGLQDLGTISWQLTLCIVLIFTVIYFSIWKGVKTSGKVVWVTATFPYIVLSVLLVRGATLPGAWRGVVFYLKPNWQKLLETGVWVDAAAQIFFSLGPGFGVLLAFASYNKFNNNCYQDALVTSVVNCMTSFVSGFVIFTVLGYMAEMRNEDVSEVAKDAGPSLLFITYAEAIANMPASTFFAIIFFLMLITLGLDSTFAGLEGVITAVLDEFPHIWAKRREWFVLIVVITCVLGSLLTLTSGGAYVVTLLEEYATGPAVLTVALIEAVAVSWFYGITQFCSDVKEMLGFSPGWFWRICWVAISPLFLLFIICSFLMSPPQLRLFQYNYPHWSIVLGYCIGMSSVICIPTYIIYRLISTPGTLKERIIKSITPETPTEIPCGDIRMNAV

[1] = biological target: T3, cloned human 5HT1A receptors (Homo sapiens, UniProt P08908); test: 35S-GTPγS binding assay, membranes containing cloned human 5HT1A receptors; type: biochemical; conditions: for IC50: antagonist potency, reversal of the effects of the standard agonist 8-OHDPAT, read-out: 5-HT1A Function IC50; for Emax: maximum inhibitory effect, read-out: 5-HT1A Function (Imax)
T3 construct: expressed in transfected cells
T3 sequence (P08908 1-422): T1 sequence (P08908 1-422)
Description: Antagonist activity at 5-HT1A receptors was established by using a ^35S-GTPγS binding assay similar to that used by Lazareno and Birdsall (Br. J. Pharmacol. 109: 1120, 1993), in which the test compound's ability to affect the binding of ^35S-GTPγS to membranes containing cloned human 5HT1A receptors was determined. Agonists produce an increase in binding whereas antagonists produce no increase but rather reverse the effects of the standard agonist 8-OHDPAT. The test compound's maximum inhibitory effect is represented as the Imax, while its potency is defined by the IC50.

melting point	Ki (human 5-HT1A receptors)	Ki (serotonin transporter)	IC50 [1]	Emax [1]	Structure (SMILES)
210 to 214 °C					Cc1ccc2c3c(ccc2n1)OC[C@H](CNCCc1coc2ccccc12)O3 (as salt: fumarate) [Example 17]
170 to 174 °C					Cc1ccc2c3c(ccc2n1)OCC(CNCCCc1c[nH]c2ccc(C#N)cc12)O3 (stereo not drawn) (as salt: hydrochloride) [Example 29, 3-{3-[(8-Methyl-2,3-dihydro-[1,4]dioxino[2,3-f]quinolin-2-ylmethyl)-amino]-propyl}-1H-indole-5-carbonitrile]
148 to 151 °C					Cc1nc2ccc3c(c2o1)O[C@@H](CNCCCc1c[nH]c2ccc(C#N)cc12)CO3 (as salt: hydrochloride) [Example 30, 3-{3-[(2-Methyl-7,8-dihydro-[1,4]dioxino[2,3-g][1,3]benzoxazol-8-ylmethyl)amino]-propyl}-1H-indole-5-carbanitrile]
	35.3 nM	2.4 nM	205 nM	97.7%	Cc1nc2ccc3c(c2o1)O[C@@H](CN(C)CCCc1c[nH]c2ccc(C#N)cc12)CO3 [Example 31, 3-{3-[M thyl-(2-methyl-7,8-dihydro-[1,4]dioxino[2,3[-g][1,3]benzoxazol-8-ylmethyl)-amino]-propyl)}-1H-indole-5-carbonitrile]
	52.9 nM	6.7 nM	341 nM	100%	Cc1ccc2c3c(ccc2n1)OCC(CN(C)CCCc1cn(C)c2c(F)cc(F)cc12)O3 (stereo not drawn) [Example 27, N-[3-(5,7-Difluoro-1-methyl-1H-indol-3-yl)propyl]-N-methyl-N-(8-methyl-2,3-dihydro-[1,4]dioxino[2,3-f]quinolin-2-ylmethyl)amine]
	0.56 nM	2.4 nM	66.6 nM	78.9%	Cc1ccc2c3c(ccc2n1)OCC(CNCCCCc1cn(C)c2ccc(F)cc12)O3 (stereo not drawn) [Example 35, [4-(5-Fluoro-1-methyl-1H-indol-3-yl)-butyl]-(8-methyl-2,3-dihydro-[1,4]dioxino[2,3-f]quinolin-2-ylmethyl)-amine]
	0.38 nM	2.82 nM	188 nM	100%	Cc1ccc2c3c(ccc2n1)OC[C@H](CNCCCc1csc2ccccc12)O3 [Example 20]
	4.19 nM	47 nM	909 nM	58%	Cc1ccc2c3c(ccc2n1)OCC(CNCCc1c[nH]c2ccc(F)cc12)O3 (stereo not drawn) [Example 4, N-[2-(5-Fluoro-1H-indol-3-yl)ethyl]-N-(8-methyl-2,3-dihydro-[1,4]dioxino[2,3-f]quinolin-2-ylmethyl)amine]
	1.03 nM	1 nM	507 nM	100%	Fc1ccc2[nH]cc(CCCNC[C@H]3COc4ccc5ncccc5c4O3)c2c1 [Example 14, N-(2,3-Dihydro-[1,4]dioxino[2,3-f]quinolin-2-ylmthyl)-N-[3-(5-fluoro-1H-indol-3-yl)propyl]amine]

The remaining lines, values behind:

Structure (SMILES)	melting point	Ki (human 5-HT1A receptors)	Ki (serotonin transporter)	IC50 [1]	Emax [1]
Cc1ccc2c3c(ccc2n1)OCC(CNCCCc1cn(C)c2ccc(F)cc12)O3 (stereo not drawn) (as salt: fumarate) [Example 12, N-[3-(5-Fluoro-1-methyl-1H-indol-3-yl)propyl]-N-(8-methyl-2,3-dihydro-[1,4]dioxino[2,3-f]quinolin-2-ylmethyl)amine]	156 to 161 °C				
Cc1ccc2c3c(ccc2n1)OCC(CNCCCc1c[nH]c2c(F)cc(F)cc12)O3 (stereo not drawn) (as salt: fumarate) [Example 13, N-[3-(5,7-Difluoro-1H-indol-3-yl)propyl]-N-(8-methyl-2,3-dihydro-[1,4]dioxino[2,3-f]quinolin-2-ylmethyl)amine]	188 to 195 °C				
Cc1ccc2c3c(ccc2n1)OC[C@H](CNCCCc1c[nH]c2ccc(F)cc12)O3 (as salt: fumarate) [Example 3, N-[3-(5-Fluoro-1H-Indolyl-3-yl)propyl]-N-(8-methyl-2,3-dihydro-[1,4]dioxino[2,3-f]quinolin-2-ylmethyl)amine]	207 to 209 °C				
Cc1ccc2c3c(ccc2n1)OC[C@H](CNCCCc1csc2ccccc12)O3 (as salt: fumarate) [Example 20]	185 to 186 °C				
Cc1ccc2c3c(ccc2n1)OCC(CNCCCn1ccc2c(F)cccc21)O3 (stereo not drawn) (as salt: hydrochloride) [Example 46, [3-(4-Fluoro-indol-1-yl)-propyl]-(8-methyl-2,3-dihydro-[1,4]dioxino[2,3-f]quinolin-2-ylmethyl)-amine]	203 to 206 °C				
Cc1ccc2c3c(ccc2n1)OCC(CNCCCCc1cn(C)c2ccc(F)cc12)O3 (stereo not drawn) (as salt: hydrochloride) [Example 35, [4-(5-Fluoro-1-methyl-1H-indol-3-yl)-butyl]-(8-methyl-2,3-dihydro-[1,4]dioxino[2,3-f]quinolin-2-ylmethyl)-amine]	229 to 235 °C				
CCN(CCCCc1coc2ccccc12)C[C@H]1COc2ccc3nc(C)ccc3c2O1 (as salt: fumarate) [Example 52, N-[4-(1-Benzofuran-3-yl)butyl]-N-ethyl-N-{[(2S)-8-methyl-2,3-dihydro[1,4]dioxino[2,3-f]quinolin-2-yl]methyl}amine]	87 to 92 °C				
Cc1ccc2c3c(ccc2n1)OCC(CNCCc1csc2ccccc12)O3 (stereo not drawn) (as salt: fumarate) [Example 21, N-[2-(1-Benzothien-3-yl)ethyl]-N-(8-methyl-2,3-dihydro-[1,4]dioxino[2,3-f]quinolin-2-ylmethyl)amine]	124 to 127 °C				
Cc1ccc2c3c(ccc2n1)OCC(CN(C)CCCc1cn(C)c2c(F)cc(F)cc12)O3 (stereo not drawn) (as salt: hydrochloride) [Example 27, N-[3-(5,7-Difluoro-1-methyl-1H-indol-3-yl)propyl]-N-methyl-N-(8-methyl-2,3-dihydro-[1,4]dioxino[2,3-f]quinolin-2-ylmethyl)amine]	190 to 204 °C				
CCCN(CCCc1c[nH]c2ccc(F)cc12)CC1COc2ccc3nc(C)ccc3c2O1 (stereo not drawn) [Example 45, [3-(5-Fluoro-1H-indol-3-yl)-propyl]-(8-methyl-2,3-dihydro-[1,4]dioxino[2,3-f]quinolin-2-ylmethyl)-propyl-amine]		108 nM	1 nM	1090 nM	100%
Cc1ccc2c3c(ccc2n1)OC[C@H](CNCCc1c[nH]c2ccc(Cl)cc12)O3 [Example 2]		19.9 nM	34 nM	49.4 nM	37%
Cc1nc2ccc3c(c2o1)O[C@@H](CNCCCc1c[nH]c2ccc(F)cc12)CO3 [Example 23, N-[3-(5-Fluoro-1H-indol-3-yl)propyl]-N-(2-methyl-7,8-dihydro-[1,4]dioxino[2,3-g][1,3]benzoxazol-8-ylmethyl)amine]		0.7 nM	1.85 nM	19.3 nM	85.8%
Cc1ccc2c3c(ccc2n1)OCC(CN(C)CCCc1c[nH]c2ccc(F)cc12)O3 (stereo not drawn) [Example 7, N-[3-(5-Fluoro-1H-indol-3-yl)propyl]-N-methyl-N-(8-methyl-2,3-dihydro-[1,4]dioxino[2,3-f]quinolin-2-ylmethyl)amine]		3.43 nM	0.38 nM	73.9 nM	100%
Cc1ccc2c3c(ccc2n1)OC[C@H](CNCCCCc1c[nH]c2ccc(C#N)cc12)O3 [Example 39, 3-{4-[(8-Methyl-2,3-dihydro-[1,4]dioxino[2,3-f]quinolin-2-ylmthyl)-amino]-butyl}-1H-indole-5-carbonitrile]		0.85 nM	0.5 nM	263 nM	78.5%
CCc1ccc2c3c(ccc2n1)OCC(CNCCCc1c[nH]c2ccc(F)cc12)O3 (stereo not drawn) [Example 5, N-[3-(5-Fluoro-1H-Indol-3-yl)propyl]-N-(8-ethyl-2,3-dihydro-[1,4]dioxino[2,3-f]quinolin-2-ylmethyl)amine]		0.64 nM	0.96 nM	92.5 nM	76.8%
Cc1ccc2c3c(ccc2n1)OC[C@H](CN(C)CCCc1c[nH]c2ccc(C#N)cc12)O3 [Example 32]		5.46 nM	1 nM	233 nM	100%
Cc1ccc2c3c(ccc2n1)OCC(CNCCCCc1c[nH]c2ccccc12)O3 (stereo not drawn) [Example 9, N-[4-(1H-indol-3-yl)butyl]-N-(8-methyl-2,3-dihydro-[1,4]dioxino[2,3-f]quinolin-2-ylmethyl)amine]		0.46 nM	4.7 nM	23.7 nM	95.2%
Cc1ccc2c3c(ccc2n1)OC[C@H](CNCCc1coc2ccccc12)O3 [Example 17]		0.63 nM	46 nM	52 nM	78%
